Assay [1] concerns the target DNA damage-inducible transcript 3 protein (Mus musculus, UniProt P35639). The assay is classed as functional, Cricetulus griseus.
For another assay, the target named is T1, Coagulation factor XII (Homo sapiens, UniProt P00748).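 Also: activated factor XIIa alpha cleaving a fluorogenic AMC peptide substrate; inhibitor potency from loss of enzyme activity.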
T1 sequence (P00748 whole entry): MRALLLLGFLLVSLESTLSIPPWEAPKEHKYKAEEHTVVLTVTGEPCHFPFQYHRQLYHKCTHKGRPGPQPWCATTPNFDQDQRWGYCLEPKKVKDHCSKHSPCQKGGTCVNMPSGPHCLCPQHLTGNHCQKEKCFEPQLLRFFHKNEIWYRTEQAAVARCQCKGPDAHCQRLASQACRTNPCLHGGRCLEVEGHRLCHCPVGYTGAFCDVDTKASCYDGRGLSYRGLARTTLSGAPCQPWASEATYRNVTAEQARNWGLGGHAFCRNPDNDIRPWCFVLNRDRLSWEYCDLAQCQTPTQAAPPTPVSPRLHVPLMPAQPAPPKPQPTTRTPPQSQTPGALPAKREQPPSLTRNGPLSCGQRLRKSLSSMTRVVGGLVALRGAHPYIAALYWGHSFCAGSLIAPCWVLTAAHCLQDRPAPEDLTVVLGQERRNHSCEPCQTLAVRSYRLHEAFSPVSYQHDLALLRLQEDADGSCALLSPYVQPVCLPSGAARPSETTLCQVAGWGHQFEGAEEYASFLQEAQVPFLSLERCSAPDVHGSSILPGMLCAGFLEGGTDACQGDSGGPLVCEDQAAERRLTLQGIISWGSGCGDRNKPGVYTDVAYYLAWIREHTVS
It is filed as functional.

Assay [2] deals with Peroxisome proliferator-activated receptor gamma/Nuclear receptor coactivator 2 (Homo sapiens, UniProt P37231). It is filed as functional.
Sequence of Peroxisome proliferator-activated receptor gamma/Nuclear receptor coactivator 2 (P37231 whole entry): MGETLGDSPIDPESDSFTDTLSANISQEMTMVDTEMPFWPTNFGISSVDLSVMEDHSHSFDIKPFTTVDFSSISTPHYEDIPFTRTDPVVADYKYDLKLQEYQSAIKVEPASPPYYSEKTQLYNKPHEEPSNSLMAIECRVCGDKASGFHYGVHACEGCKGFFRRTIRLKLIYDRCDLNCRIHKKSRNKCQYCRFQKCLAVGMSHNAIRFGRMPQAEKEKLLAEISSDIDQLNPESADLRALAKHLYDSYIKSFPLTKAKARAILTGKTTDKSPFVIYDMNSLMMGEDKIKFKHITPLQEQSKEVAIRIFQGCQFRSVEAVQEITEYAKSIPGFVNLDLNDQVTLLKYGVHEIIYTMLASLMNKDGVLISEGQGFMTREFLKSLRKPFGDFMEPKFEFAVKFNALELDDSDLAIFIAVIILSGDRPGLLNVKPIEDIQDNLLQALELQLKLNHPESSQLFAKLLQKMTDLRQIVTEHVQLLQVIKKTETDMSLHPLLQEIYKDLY
Sequence of Peroxisome proliferator-activated receptor gamma/Nuclear receptor coactivator 2 (Q15596 whole entry, further chain): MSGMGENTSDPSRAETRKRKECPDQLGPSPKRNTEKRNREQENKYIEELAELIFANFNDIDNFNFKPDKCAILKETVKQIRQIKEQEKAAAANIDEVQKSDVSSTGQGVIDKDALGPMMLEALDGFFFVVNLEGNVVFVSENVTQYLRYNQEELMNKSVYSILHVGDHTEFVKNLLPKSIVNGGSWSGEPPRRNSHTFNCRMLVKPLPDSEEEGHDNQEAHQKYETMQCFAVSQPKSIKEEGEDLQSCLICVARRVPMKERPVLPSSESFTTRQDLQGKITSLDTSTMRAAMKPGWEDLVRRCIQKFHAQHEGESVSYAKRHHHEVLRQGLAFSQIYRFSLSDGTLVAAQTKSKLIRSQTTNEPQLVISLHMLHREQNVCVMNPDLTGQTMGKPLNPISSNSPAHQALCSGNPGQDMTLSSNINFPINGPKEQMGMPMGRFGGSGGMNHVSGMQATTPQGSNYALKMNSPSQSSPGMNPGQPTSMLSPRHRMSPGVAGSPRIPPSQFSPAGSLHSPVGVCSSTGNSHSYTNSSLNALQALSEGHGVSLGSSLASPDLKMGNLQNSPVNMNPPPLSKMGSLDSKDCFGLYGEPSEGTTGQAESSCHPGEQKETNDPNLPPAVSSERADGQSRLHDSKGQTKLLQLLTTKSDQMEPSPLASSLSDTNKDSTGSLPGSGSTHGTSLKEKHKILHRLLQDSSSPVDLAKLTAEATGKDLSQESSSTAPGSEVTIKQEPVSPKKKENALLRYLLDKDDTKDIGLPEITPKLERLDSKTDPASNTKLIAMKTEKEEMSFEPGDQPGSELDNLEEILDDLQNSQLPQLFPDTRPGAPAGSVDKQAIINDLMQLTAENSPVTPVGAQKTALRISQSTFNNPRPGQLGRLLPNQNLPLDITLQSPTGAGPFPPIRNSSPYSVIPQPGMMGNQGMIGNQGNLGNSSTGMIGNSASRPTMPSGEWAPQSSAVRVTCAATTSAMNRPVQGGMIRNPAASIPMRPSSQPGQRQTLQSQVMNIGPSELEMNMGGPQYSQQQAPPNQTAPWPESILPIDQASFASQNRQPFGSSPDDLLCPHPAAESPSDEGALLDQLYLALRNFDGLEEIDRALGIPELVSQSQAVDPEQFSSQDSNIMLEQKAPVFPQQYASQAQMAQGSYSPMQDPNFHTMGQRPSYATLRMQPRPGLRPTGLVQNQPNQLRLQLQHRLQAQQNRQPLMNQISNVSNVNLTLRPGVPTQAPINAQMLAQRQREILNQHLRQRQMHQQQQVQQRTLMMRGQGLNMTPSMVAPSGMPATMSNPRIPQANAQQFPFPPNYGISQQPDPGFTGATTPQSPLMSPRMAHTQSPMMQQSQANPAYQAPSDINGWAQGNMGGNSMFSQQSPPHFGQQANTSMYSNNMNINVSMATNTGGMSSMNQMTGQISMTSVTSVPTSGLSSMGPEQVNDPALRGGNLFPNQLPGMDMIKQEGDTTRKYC
The target of assay [3] is Peroxisome proliferator-activated receptor gamma/Nuclear receptor coactivator 1 (Homo sapiens, UniProt P37231). It is filed as functional.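 Also: agonist potency as compounds enhance coactivator SRC-1 recruitment to PPARgamma.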
Assay [4] deals with Peroxisome proliferator-activated receptor gamma/Nuclear receptor coactivator 3 (Homo sapiens, UniProt P37231). The assay is classed as functional.
Sequence of Peroxisome proliferator-activated receptor gamma/Nuclear receptor coactivator 3 (P37231 whole entry): as the sequence (P37231 whole entry) above
Sequence of Peroxisome proliferator-activated receptor gamma/Nuclear receptor coactivator 3 (Q9Y6Q9 whole entry, further chain): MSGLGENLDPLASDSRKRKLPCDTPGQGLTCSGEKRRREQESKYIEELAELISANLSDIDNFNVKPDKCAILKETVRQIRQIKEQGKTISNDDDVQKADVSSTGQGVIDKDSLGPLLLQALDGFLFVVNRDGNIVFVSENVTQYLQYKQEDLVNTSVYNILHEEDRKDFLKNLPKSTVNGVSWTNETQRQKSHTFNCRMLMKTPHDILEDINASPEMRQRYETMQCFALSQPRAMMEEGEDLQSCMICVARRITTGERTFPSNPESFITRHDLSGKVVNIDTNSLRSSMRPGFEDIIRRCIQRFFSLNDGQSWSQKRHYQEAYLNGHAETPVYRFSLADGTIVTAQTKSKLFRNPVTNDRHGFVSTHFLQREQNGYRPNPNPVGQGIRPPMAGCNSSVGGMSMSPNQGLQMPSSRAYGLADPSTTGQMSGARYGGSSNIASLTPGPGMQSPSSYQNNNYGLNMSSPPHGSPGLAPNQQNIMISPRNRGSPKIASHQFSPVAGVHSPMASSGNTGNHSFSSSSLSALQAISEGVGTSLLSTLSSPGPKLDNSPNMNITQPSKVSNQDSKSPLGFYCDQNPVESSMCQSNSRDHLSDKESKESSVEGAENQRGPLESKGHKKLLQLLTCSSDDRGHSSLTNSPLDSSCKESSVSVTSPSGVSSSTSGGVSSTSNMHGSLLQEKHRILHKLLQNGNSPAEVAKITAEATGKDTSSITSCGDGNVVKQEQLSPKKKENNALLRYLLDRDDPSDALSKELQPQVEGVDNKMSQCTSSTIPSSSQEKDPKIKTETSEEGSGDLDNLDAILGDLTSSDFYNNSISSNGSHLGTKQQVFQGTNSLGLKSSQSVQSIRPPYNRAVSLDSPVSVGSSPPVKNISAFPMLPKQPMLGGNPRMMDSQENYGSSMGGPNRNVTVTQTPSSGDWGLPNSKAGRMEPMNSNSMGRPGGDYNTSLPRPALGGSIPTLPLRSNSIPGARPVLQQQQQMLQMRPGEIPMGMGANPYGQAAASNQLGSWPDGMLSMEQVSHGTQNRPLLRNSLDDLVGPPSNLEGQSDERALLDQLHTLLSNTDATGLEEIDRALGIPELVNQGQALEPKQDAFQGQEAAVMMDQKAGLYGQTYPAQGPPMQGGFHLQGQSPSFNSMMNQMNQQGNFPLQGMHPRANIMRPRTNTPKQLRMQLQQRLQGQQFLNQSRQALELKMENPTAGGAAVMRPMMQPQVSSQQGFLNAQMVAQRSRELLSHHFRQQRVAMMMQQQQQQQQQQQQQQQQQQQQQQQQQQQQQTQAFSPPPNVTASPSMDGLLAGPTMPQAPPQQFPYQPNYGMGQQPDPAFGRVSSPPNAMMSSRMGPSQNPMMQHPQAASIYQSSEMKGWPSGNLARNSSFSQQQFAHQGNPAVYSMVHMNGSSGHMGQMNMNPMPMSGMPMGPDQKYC
Assay [5] concerns the target T2, Voltage-gated N-type calcium channel alpha-1B subunit/Amyloid beta A4 precursor protein-binding family A member 1 (Homo sapiens, UniProt Q00975+Q02410). It is filed as protein assay.
Assay [6] has as its target T2, Voltage-gated N-type calcium channel alpha-1B subunit/Amyloid beta A4 precursor protein-binding family A member 1. It is filed as protein assay. This is another data set of the same source.
Assay [7] has as its system HEK293. Nature of the assay: NOD1 signaling inhibitors, primary screen, cell-based, luminescence, uHTS (AID 1578). The assay is classed as functional. The note with it: Homo sapiens.
Assay [8] has as its system BJ. In words: cytotoxicity toward BJ-TERT fibroblasts, dose response, cell-based, RAS-independent, luminescence (AID 1933). It is filed as functional. The note with it: Homo sapiens.
For assay [9], the system named is HEK293. Nature of the assay: cells. The assay is classed as functional, cell-based. The note with it: Homo sapiens.
In assay [10] the test system is BJ. In words: cells. The note with it: Homo sapiens. The assay is classed as functional, cell-based.
The subject of assay [11] is HEK293. Nature of the assay: cells. It is filed as functional, cell-based. The note with it: Homo sapiens. This is another data set of the same source.
In assay [12] the target is Nucleotide-binding oligomerization domain-containing protein 2 (Homo sapiens, UniProt Q9HC29). In words: NOD2 signaling inhibitors, cell-based, luminescence, uHTS, HEK293 (AID 1566). It is filed as functional.
In assay [13] the test system is HEK293. Nature of the assay: NOD2 signaling inhibitors in MDP-stimulated cells, cell-based, uHTS, luminescence (AID 2001). The assay is classed as functional. The note with it: Homo sapiens.
The nature of assay [14]: inhibitors of intracellular T. cruzi replication, confirmation, NIH3T3 host cells, beta-gal luminescence (AID 2044).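 Also: intracellular parasites grown in NIH/3T3 mouse fibroblasts as host cells; luminescent beta-galactosidase reporter signal from transgenic T. cruzi replicating inside host cells; inhibitors lower the luminescence signal.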 The assay is classed as functional, cell-based.
Assay [15] concerns HEK293. In words: cells. The assay is classed as functional, cell-based. The note with it: Homo sapiens. This is another data set of the same source.
A short description of assay [16]: cytotoxicity toward NIH3T3 fibroblasts, dose response, counter-screen, cell-based, ATP luminescence, mouse fibroblasts (AID 2010).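 Also: cells exposed to compound for about 90 hours before reading.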 The assay is classed as functional. (In general: A counterscreen serves to expose hits that act by an unwanted route or on another target.)
Assay [17] has as its system BJ. In words: cytotoxicity toward BJ-TERT-LT-ST fibroblasts, dose response, cell-based, RAS-independent, luminescence (AID 1935).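 Also: BJ fibroblasts immortalized with TERT plus LT and ST oncogenes.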 The assay is classed as functional. The note with it: Homo sapiens.
Assay [18] can be described thus: cytotoxicity toward DRD oncogenic fibroblasts, dose response, cell-based, non-viral oncogenic, luminescence (AID 1934). It is filed as functional. The note with it: Homo sapiens.
Assay [19] is described as follows: inhibitors of firefly luciferase expression or activity, dose response, H4 neuroglioma cells, luminescence (AID 1990). The assay is classed as functional, cell-based.
Assay [20] is described as follows: Luminescence Cell-Based Dose Response HTS to Identify Inhibitors of 5'UTR Stem-Loop Driven Prion Protein mRNA Translation in H4 Neuroglioblastoma Cells. [Related pubchem assays: 1827 (Project Summary), 1813 (Primary HTS)]. It is filed as functional.
Assay [21] in a line: inhibitors of SNCA 5'UTR-driven reporter translation, confirmation, H4 neuroglioma cells, luminescence (AID 1988). It is filed as functional, cell-based.
Assay [22] is described as follows: Luminescence-based counterscreen assay for KLF5 inhibitors: dose response cell-based high throughput screening assay to identify cytotoxic compounds using the IEC-6 intestinal epithelial cell line. [Related pubchem assays: 1700 (Primary screen.), 1834 (Confirmation screen.), 1858 (Summary AID.), 1905 (Counterscreen.)]. It is filed as functional.
Assay [23] can be described thus: A549 cell cytotoxicity, dose response, cytotoxicity control, plate reader, cherry-pick, antagonist series (AID 743412). It is filed as functional, cell-based.
The nature of assay [24]: HepG2 cell cytotoxicity, dose response, cytotoxicity control, plate reader, cherry-pick, antagonist series (AID 743416). It is filed as functional, cell-based.
Assay [25] is described as follows: LGR2 antagonists, dose response, cell-based, HEK293, CRE-luciferase reporter, cherry pick, set 2 (AID 743343).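 Also: transfected cells were stimulated with diluted bursicon conditioned medium after compound addition.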 The assay is classed as functional. Background: A reporter such as luciferase makes a cellular process visible.
Assay [26] in a line: MC4R antagonists, dose response, counter-screen for LGR2 antagonist project, cell-based, plate reader, cherry pick (AID 743444).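 Also: transfected HEK 293 cells stimulated with alpha-MSH peptide; potency of inhibitors of the alpha-MSH evoked signal.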 It is filed as functional.
Assay [27] can be described thus: luciferase reporter signal reduction – luminescence, H4-C neuroglioblastoma cells, dose response (AID 2458).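 Also: H4 neuroglioblastoma cells stably carrying a luciferase reporter gene fusion.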 The assay is classed as functional, cell-based.
The next assay in a line: cells. It is filed as functional, cell-based.
The nature of assay [28]: inhibitors of SNCA 5'UTR-driven translation, confirmation, luminescence, H4 neuroglioblastoma cells, dose confirmation (AID 2454).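 Also: H4 neuroglioblastoma cells carrying an alpha-synuclein 5'UTR luciferase reporter; potency for inhibition of the luciferase signal.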 It is filed as functional, cell-based.

The source made the active and inactive calls.

Sequence of DNA damage-inducible transcript 3 protein (P35639 whole entry): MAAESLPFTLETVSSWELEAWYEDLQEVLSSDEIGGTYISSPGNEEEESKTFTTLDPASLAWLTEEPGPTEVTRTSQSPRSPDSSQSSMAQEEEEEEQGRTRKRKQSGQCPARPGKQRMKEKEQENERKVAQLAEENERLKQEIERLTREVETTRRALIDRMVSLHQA

On to `O=C(c1ccc(Cl)cc1)c1c[nH]c(C(=O)NNc2cccc(Cl)n2)c1`, for which the “Absolute IC50 (CHOP)” value in assay [1] is 10 µM.

For `CCn1c(SCC(=O)Nc2cccnc2Cl)nnc1-c1ccccc1`, at Coagulation factor XII, the IC50 (in general, the concentration that inhibits the measured activity by half) was > 50 µM (inactive).

`O=C(CSc1nnnn1Cc1ccccc1)NCC(=O)c1ccccc1`: the concentration for a half-maximal effect (EC50) (usually the concentration that produces a half-maximal response) is 45.9 µM (not active) in assay [2], > 79.4 µM (not active) in [3] and 84.7 µM (not active) in [4].

In the case of `COc1ccc2nc(O)c(CN(C3CCCCC3)C(c3nnnn3Cc3ccco3)C(C)C)cc2c1` (stereo unspecified), the concentration for half-maximal inhibition (IC50) in [5] was 25.9 µM (active); in assay [6], 3.17 µM (active).

`COc1cc(/C=C/c2ccc3cccc(O)c3n2)cc(Br)c1OC`: the EC50 with HEK293 [7] is > 20 µM (inactive); in the assay on BJ [8], 10.2 µM (active); in the assay on BJ [10], 35.8 µM (active); in [12], > 20 µM (inactive); in assay [14] it was 0.699 µM (active); in [16], 9.61 µM (active). Besides, the EC50 (with BJ [17]; in assay [18]) was 21.1 µM (active) in each case. The 50% inhibitory concentration (IC50) in the assay on HEK293 [9] was 10.4 µM (active); in the assay on HEK293 [11] it was > 20 µM (inactive); with HEK293 [13], 4.13 µM (inactive); with HEK293 [15], > 20 µM (inactive).

Turning to `CCCn1c(NC(=O)c2ccc(Br)cc2)nc2ccccc21`, the EC50 in [2] was 9.79 µM (active); in [3], 8.96 µM (active); in [4], 13.6 µM (not active).

On to `COC(=O)c1c(N)sc(C(=O)NCCc2ccccc2)c1C`, for which the EC50 in assay [19] is 3.07 µM (active); in [20], 0.394 µM (active); in assay [21] it was 0.213 µM (active). Moreover, in assay [22], the IC50 is > 39.8 µM (not active). Besides, the AC50 (usually the concentration at which the activity in the assay is half-maximal) in assay [23] is > 52 µM (inactive); in assay [24], > 52 µM (inactive); in [25], 1.44 µM (active); in assay [26], 1.94 µM (active).

As to `Cc1ccc2nc(NC(=O)CCCc3nc4ccccc4s3)sc2c1`, the 50% effective concentration (EC50) is 0.499 µM (active) in assay [19]; 1.6 µM (active) in [27]; > 12 µM (not active) in the assay “cells”; < 0.1 µM (active) in [21]; 1.54 µM (active) in assay [28]. In addition, the concentration for half-maximal inhibition (IC50) in assay [22] is listed as > 39.8 µM (not active).

Values taken from ChEMBL document CHEMBL1201862, “PubChem BioAssay data set” (2004).
